Measured values: US8980819B2, “4(3)-(4-hydroxy-4-methylpentyl)-3-cyclohexene-1-carbonitrile” (Kao Corporation, priority 2013, dated 2015)

Assay: Stability in an aqueous vehicle
Format: physicochemical
Conditions: no test data printed

4(3)-(4-hydroxy-4-methylpentyl)-3-cyclohexene-1-carbonitrile [Example 1]
Stability in an aqueous vehicle: stable in an aqueous vehicle
